Key:
[1] = tested on: PANC-1; test: In vitro cytotoxicity assay (CellTiter-Glo); assay type: cell-based; settings: 72 h exposure
Procedure: The objective of these studies was to determine the IC50 values for PEG-gemcitabine conjugates against gemcitabine-resistant cell lines based on data from previous Xenograft studies. The cells were exposed for 72 h, and cell viability assessed by using the CellTiter-Glo assay.
The PEG-gemcitabine derivatives and gemcitabine inhibited the growth of most of the cell lines with IC50 values from the nM to low μM range, except for PANC-1 cells. Like the previous study, some of the IC50 values should be interpreted carefully because the concentration range tested was not centered around the IC50. […] The PANC-1 pancreatic cell line, in contrast to BxPC-3, Capan-1, or MIA-PaCa-2, has been shown previously to be resistant in vitro to gemcitabine, and 4′-thio-FAC, a deoxycytidine sulfur- and fluoro-substituted analog (Zajchowski et al., (2005). Int J Cancer. 114(6), 1002-9).

[2] = tested on: MDCK cells; test: Bi-directional permeability in MDCK cells
Text: (§1) Bi-Directional Permeability of PEG-Floxuridine Conjugates in Caco-2 and MDCK Cells

[3] = tested on: Caco-2 cells; test: Bi-directional permeability in Caco-2 cells
Text: as §1

COCCOCCOCCOCCOCCOCCOCCOP(=O)(O)OC[C@H]1O[C@@H](n2ccc(N)nc2=O)C(F)(F)[C@@H]1O.Cl [Gemcitabine Mono (mPEG7), 5′-gemcitabine methoxy hepta(ethylene glycol) phosphate hydrochloride]
IC50 [1]: > 1e+06 nM
Papp A -> B [2]: <0.06 10^−6 cm/s
Papp B -> A [2]: <0.08 10^−6 cm/s
Significant efflux [2]: No
percent recovery A -> B [2]: 94%
percent recovery B -> A [2]: 96%
Papp A -> B [3]: <0.06 10^−6 cm/s
Papp B -> A [3]: <0.08 10^−6 cm/s
Significant efflux [3]: No
percent recovery A -> B [3]: 74%
percent recovery B -> A [3]: 86%

COCCOCCOCCOP(=O)(O)OC[C@H]1O[C@@H](n2ccc(N)nc2=O)C(F)(F)[C@@H]1O.Cl [Gemcitabine Mono (mPEG3), 5′-gemcitabine methoxy tri(ethylene glycol) phosphate hydrochloride]
IC50 [1]: > 1e+06 nM
Papp A -> B [2]: <0.06 10^−6 cm/s
Papp B -> A [2]: <0.08 10^−6 cm/s
Significant efflux [2]: No
percent recovery A -> B [2]: 91%
percent recovery B -> A [2]: 96%
Papp A -> B [3]: <0.06 10^−6 cm/s
Papp B -> A [3]: <0.08 10^−6 cm/s
Significant efflux [3]: No
percent recovery A -> B [3]: 78%
percent recovery B -> A [3]: 90%

From patent publication US9365604B2, “Oligomer-nucleoside phosphate conjugates” (NEKTAR THERAPEUTICS, priority 2007, dated 2016)
